Measurements reported in US8178658B2 (Dow AgroSciences, LLC, priority 2008, dated 2012).

Assays:
[1] = tested on: beet armyworm (BAW; Spodoptera exigua: Lepidoptera); experiment: 96-well microtiter plate-based high throughput (HTS) diet bioassay on beet armyworm (BAW HTS); format: in vivo; conditions: BAW eggs, 12 μg test compound per well, mortality at 6 d post-treatment, mortality class
Description: (§1) Bioassays on beet armyworm (BAW; Spodoptera exigua: Lepidoptera) were conducted using either a 96-well microtiter plate-based high throughput (HTS) bioassay or a 128-well diet tray assay. The HTS assay is a based on a modification of Lewer et al. J. Nat. Prod. 2006, 69, 1506. BAW eggs of were placed on top of artificial diet (100 μl) in each well of 96-well microtiter plate. The diet was pretreated with test compounds (12 μg dissolved in 30 μL of DMSO-acetone-water mixture) layered on top of the diet using a liquid handling system and then allowed to dry for several hours. Infested plates were then covered with a layer of sterile cotton batting and the plate lid, and then held in the dark at 29° C. Mortality was recoded at 6 d post-treatment. Each plate had six replicates. The percent mortality was calculated from the average of the six replicates. In the case of the 128-well diet assay, three to five second instar BAW larvae were placed in each well (3 mL) of the diet tray that had been previously filled with 1 mL of artificial diet to which 50 μg/cm^2 of the test compound (dissolved in 50 μL of 90:10 acetone-water mixture) had been applied (to each of eight wells) and then allowed to dry. Trays were covered with a clear self-adhesive cover, and held at 25° C., 14:10 light-dark for six days. Percent mortality was recorded for the larvae in each well; activity in the eight wells was then averaged. In Table 7, under the BAW HTS or BAW 50 heading, an “A” means that the compound was tested and at least 50 percent mortality was observed whereas, “B” means that either (1) the compound was tested and less than 50 percent mortality was observed or (2) the compound was not tested.

[2] = tested on: beet armyworm (BAW; Spodoptera exigua: Lepidoptera); experiment: 128-well diet tray assay on beet armyworm (BAW 50); format: in vivo; conditions: 128-well diet tray assay; 50 μg/cm^2 of test compound on diet; second instar BAW larvae; mortality class
Description: as §1

[3] = 96-well microtiter plate HTS diet assay

SMILES | BAW HTS ([1]; 96-well HTS diet bioassay) | BAW HTS [1, 3] | BAW 50 ug/cm2 [2]
COC1C(C)OC(ON=Cc2ccc(-c3cn(-c4nc(F)c(F)c(F)c4F)cn3)cc2)C(OC)C1OC (stereo not drawn) [Compound 38] | B (either (1) the compound was tested and less than 50 percent mortality was observed or (2) the compound was not tested) | B (either (1) the compound was tested and less than 50 percent mortality was observed or (2) the compound was not tested) | A (the compound was tested and at least 50 percent mortality was observed)
COC1C(C)OC(ON=Cc2ccc(-c3cn(-c4ccc(I)cn4)cn3)cc2)C(OC)C1OC (stereo not drawn) [Compound 39] | B (either (1) the compound was tested and less than 50 percent mortality was observed or (2) the compound was not tested) | B (either (1) the compound was tested and less than 50 percent mortality was observed or (2) the compound was not tested) | A (the compound was tested and at least 50 percent mortality was observed)
COc1ccc(C=NOC2OC(C)C(OC)C(OC)C2OC)cc1-c1cn(-c2ccc(C(F)(F)F)cc2)cn1 (stereo not drawn) [Compound 40] | B (either (1) the compound was tested and less than 50 percent mortality was observed or (2) the compound was not tested) | B (either (1) the compound was tested and less than 50 percent mortality was observed or (2) the compound was not tested) | A (the compound was tested and at least 50 percent mortality was observed)
COC1C(C)OC(ON=Cc2ccc(-c3cn(-c4ccc(C)cc4)cn3)cc2)C(OC)C1OC (stereo not drawn) [Compound 41] | B (either (1) the compound was tested and less than 50 percent mortality was observed or (2) the compound was not tested) | B (either (1) the compound was tested and less than 50 percent mortality was observed or (2) the compound was not tested) | A (the compound was tested and at least 50 percent mortality was observed)
COC1C(C)OC(ON=Cc2ccc(-c3cn(-c4ccc(C(F)(F)F)cc4)cn3)cc2)C(OC)C1OC (stereo not drawn) [Compound 42] | B (either (1) the compound was tested and less than 50 percent mortality was observed or (2) the compound was not tested) | B (either (1) the compound was tested and less than 50 percent mortality was observed or (2) the compound was not tested) | A (the compound was tested and at least 50 percent mortality was observed)
COC1C(C)OC(ON=Cc2ccc(-c3cn(-c4ccc(Cl)cc4)cn3)cc2)C(OC)C1OC (stereo not drawn) [Compound 43] | B (either (1) the compound was tested and less than 50 percent mortality was observed or (2) the compound was not tested) | B (either (1) the compound was tested and less than 50 percent mortality was observed or (2) the compound was not tested) | A (the compound was tested and at least 50 percent mortality was observed)
COc1ccc(-n2cnc(-c3ccc(C=NOC4OC(C)C(OC)C(OC)C4OC)cc3)c2)cc1 (stereo not drawn) [Compound 44] | B (either (1) the compound was tested and less than 50 percent mortality was observed or (2) the compound was not tested) | B (either (1) the compound was tested and less than 50 percent mortality was observed or (2) the compound was not tested) | A (the compound was tested and at least 50 percent mortality was observed)
COC1C(C)OC(ON=Cc2ccc(-c3cn(-c4ccc(Br)cc4)cn3)cc2)C(OC)C1OC (stereo not drawn) [Compound 45] | B (either (1) the compound was tested and less than 50 percent mortality was observed or (2) the compound was not tested) | B (either (1) the compound was tested and less than 50 percent mortality was observed or (2) the compound was not tested) | A (the compound was tested and at least 50 percent mortality was observed)
COC1C(C)OC(ON=Cc2ccc(-c3cn(-c4ccc(C(C)C)cc4)cn3)cc2)C(OC)C1OC (stereo not drawn) [Compound 46] | B (either (1) the compound was tested and less than 50 percent mortality was observed or (2) the compound was not tested) | B (either (1) the compound was tested and less than 50 percent mortality was observed or (2) the compound was not tested) | A (the compound was tested and at least 50 percent mortality was observed)
COC1C(C)OC(ON=Cc2ccc(-c3cn(-c4ccc(I)cc4)cn3)cc2)C(OC)C1OC (stereo not drawn) [Compound 47] | B (either (1) the compound was tested and less than 50 percent mortality was observed or (2) the compound was not tested) | B (either (1) the compound was tested and less than 50 percent mortality was observed or (2) the compound was not tested) | A (the compound was tested and at least 50 percent mortality was observed)
COC1C(C)OC(ON=Cc2ccc(-c3cn(-c4ccc(C(C)(C)C)cc4)cn3)cc2)C(OC)C1OC (stereo not drawn) [Compound 48] | B (either (1) the compound was tested and less than 50 percent mortality was observed or (2) the compound was not tested) | B (either (1) the compound was tested and less than 50 percent mortality was observed or (2) the compound was not tested) | A (the compound was tested and at least 50 percent mortality was observed)
COC1C(C)OC(ON=Cc2ccc(-c3cn(-c4ccc(OC(F)(F)F)cc4)cn3)c(F)c2F)C(OC)C1OC (stereo not drawn) [Compound 49] | B (either (1) the compound was tested and less than 50 percent mortality was observed or (2) the compound was not tested) | B (either (1) the compound was tested and less than 50 percent mortality was observed or (2) the compound was not tested) | A (the compound was tested and at least 50 percent mortality was observed)
COC1C(C)OC(ON=Cc2ccc(Cl)c(-c3cn(-c4ccc(OC(F)(F)F)cc4)cn3)c2)C(OC)C1OC (stereo not drawn) [Compound 50] | A (the compound was tested and at least 50 percent mortality was observed) | A (the compound was tested and at least 50 percent mortality was observed) | A (the compound was tested and at least 50 percent mortality was observed)
CO[C@@H]1[C@@H](OC)[C@H](C)O[C@@H](O/N=C/c2ccc(-c3cn(-c4ccc(OC(F)(F)C(F)(F)F)cc4)cn3)cc2)[C@@H]1OC [Compound 51] | B (either (1) the compound was tested and less than 50 percent mortality was observed or (2) the compound was not tested) | B (either (1) the compound was tested and less than 50 percent mortality was observed or (2) the compound was not tested) | A (the compound was tested and at least 50 percent mortality was observed)
CCOC1C(C)OC(ON=Cc2ccc(-c3cn(-c4ccc(OC(F)(F)C(F)(F)F)cc4)cn3)cc2)C(OCC)C1OCC (stereo not drawn) [Compound 52] | B (either (1) the compound was tested and less than 50 percent mortality was observed or (2) the compound was not tested) | B (either (1) the compound was tested and less than 50 percent mortality was observed or (2) the compound was not tested) | A (the compound was tested and at least 50 percent mortality was observed)
CCOC(=O)C1C(c2ccc(/C=N/O[C@@H]3O[C@@H](C)[C@H](OC)[C@@H](OC)[C@H]3OC)cc2)=NN(c2ccc(OC(F)(F)F)cc2)C1C(=O)OCC (stereo partly drawn) [Compound 53] | A (the compound was tested and at least 50 percent mortality was observed) | A (the compound was tested and at least 50 percent mortality was observed) | A (the compound was tested and at least 50 percent mortality was observed)
COC(=O)C1CC(c2ccc(/C=N/O[C@@H]3O[C@@H](C)[C@H](OC)[C@@H](OC)[C@H]3OC)cc2)=NN1c1ccc(OC(F)(F)F)cc1 (stereo partly drawn) [Compound 54] | A (the compound was tested and at least 50 percent mortality was observed) | A (the compound was tested and at least 50 percent mortality was observed) | A (the compound was tested and at least 50 percent mortality was observed)
CCCC1C(c2ccc(/C=N/O[C@@H]3O[C@@H](C)[C@H](OC)[C@@H](OC)[C@H]3OC)cc2)=NN(c2ccc(OC(F)(F)F)cc2)C1C(=O)OCC (stereo partly drawn) [Compound 55] | A (the compound was tested and at least 50 percent mortality was observed) | A (the compound was tested and at least 50 percent mortality was observed) | A (the compound was tested and at least 50 percent mortality was observed)
CCOC(=O)C1C(C)C(c2ccc(/C=N/O[C@@H]3O[C@@H](C)[C@H](OC)[C@@H](OC)[C@H]3OC)cc2)=NN1c1ccc(OC(F)(F)F)cc1 (stereo partly drawn) [Compound 56] | A (the compound was tested and at least 50 percent mortality was observed) | A (the compound was tested and at least 50 percent mortality was observed) | A (the compound was tested and at least 50 percent mortality was observed)
